Measurements taken from PubChem BioAssay AID2060888 (Molecular Pharmacology Branch, DTP, NCI, 2025).
pIC50: −log10 of the molar value.

System: 695427-040-R-J1-PDC complex spheroid viability
Experiment: Anticancer human tumor 695427-040-R-J1-PDC patient-derived colon adenocarcinoma cell line growth inhibition [RAS]
Details: for pIC50: curve of first compound; for viability, T/C: stronger effect = lower value; active = viability on the fitted dose curve at most 10% of control; inactive = the rest
Outline: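 Multi-cell-type spheroids: tumor cells plus HUVEC endothelial cells and mesenchymal stem cells. RAS-pathway inhibitors were combined with targeted agents, each dosed in half-log steps down from clinical Cmax, or from 10 microM when Cmax was unknown.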

[1] = second compound 0.000949 µM, first compound 0.00316 µM
[2] = second compound 0.000949 µM, first compound 0.01 µM
[3] = second compound 0.000949 µM, first compound 0.0316 µM
[4] = second compound 0.000949 µM, first compound 0.1 µM
[5] = second compound 0.000949 µM, first compound 0.316 µM
[6] = second compound 0.000949 µM, first compound 1 µM
[7] = second compound 0.003 µM, first compound 0.00316 µM
[8] = second compound 0.003 µM, first compound 0.01 µM
[9] = second compound 0.003 µM, first compound 0.0316 µM
[10] = second compound 0.003 µM, first compound 0.1 µM
[11] = second compound 0.003 µM, first compound 0.316 µM
[12] = second compound 0.003 µM, first compound 1 µM
[13] = second compound 0.00949 µM, first compound 0.00316 µM
[14] = second compound 0.00949 µM, first compound 0.01 µM
[15] = second compound 0.00949 µM, first compound 0.0316 µM
[16] = second compound 0.00949 µM, first compound 0.1 µM
[17] = second compound 0.00949 µM, first compound 0.316 µM
[18] = second compound 0.00949 µM, first compound 1 µM
[19] = second compound 0.03 µM, first compound 0.00316 µM
[20] = second compound 0.03 µM, first compound 0.01 µM
[21] = second compound 0.03 µM, first compound 0.0316 µM
[22] = second compound 0.03 µM, first compound 0.1 µM
[23] = second compound 0.03 µM, first compound 0.316 µM
[24] = second compound 0.03 µM, first compound 1 µM
[25] = second compound 0.0949 µM, first compound 0.00316 µM
[26] = second compound 0.0949 µM, first compound 0.01 µM
[27] = second compound 0.0949 µM, first compound 0.0316 µM
[28] = second compound 0.0949 µM, first compound 0.1 µM
[29] = second compound 0.0949 µM, first compound 0.316 µM
[30] = second compound 0.0949 µM, first compound 1 µM
[31] = second compound 0.3 µM, first compound 0.00316 µM
[32] = second compound 0.3 µM, first compound 0.01 µM
[33] = second compound 0.3 µM, first compound 0.0316 µM
[34] = second compound 0.3 µM, first compound 0.1 µM
[35] = second compound 0.3 µM, first compound 0.316 µM
[36] = second compound 0.3 µM, first compound 1 µM
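Also: viability read after seven days of drug exposure.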
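For viability, T/C in this document: 100% = DMSO vehicle control viability.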

CC1(C)CCC(Nc2ncc(C(F)(F)F)c(-c3c[nH]c4c(P(C)(C)=O)c(C#N)ccc34)n2)CN1 (stereo unspecified) + C=CC(=O)N1CCN(c2nc(OCC3CCCN3C)nc3c(F)c(-c4nc(N)cc(C)c4C(F)(F)F)c(Cl)cc23)C(C)C1
< 6.52: pIC50 (second compound 0.00316 µM) | pIC50 (second compound 0.01 µM) | pIC50 (second compound 0.0316 µM) | pIC50 (second compound 0.1 µM) | pIC50 (second compound 0.316 µM) | pIC50 (second compound 1 µM)
inactive: viability, T/C (second compound 0.00316 µM, first compound 0.000949 µM) 116% | viability, T/C (second compound 0.00316 µM, first compound 0.003 µM) 107% | viability, T/C (second compound 0.00316 µM, first compound 0.00949 µM) 90.6% | viability, T/C (second compound 0.00316 µM, first compound 0.03 µM) 86.5% | viability, T/C (second compound 0.00316 µM, first compound 0.0949 µM) 84.6% | viability, T/C (second compound 0.00316 µM, first compound 0.3 µM) 79.2% | viability, T/C (second compound 0.01 µM, first compound 0.000949 µM) 95.8% | viability, T/C (second compound 0.01 µM, first compound 0.003 µM) 93.3% | viability, T/C (second compound 0.01 µM, first compound 0.00949 µM) 88.4% | viability, T/C (second compound 0.01 µM, first compound 0.03 µM) 78.8% | viability, T/C (second compound 0.01 µM, first compound 0.0949 µM) 82.9% | viability, T/C (second compound 0.01 µM, first compound 0.3 µM) 84.9% | viability, T/C (second compound 0.0316 µM, first compound 0.000949 µM) 108% | viability, T/C (second compound 0.0316 µM, first compound 0.003 µM) 89.9% | viability, T/C (second compound 0.0316 µM, first compound 0.00949 µM) 96.2% | viability, T/C (second compound 0.0316 µM, first compound 0.03 µM) 75.7% | viability, T/C (second compound 0.0316 µM, first compound 0.0949 µM) 86.9% | viability, T/C (second compound 0.0316 µM, first compound 0.3 µM) 77.4% | viability, T/C (second compound 0.1 µM, first compound 0.000949 µM) 89.5% | viability, T/C (second compound 0.1 µM, first compound 0.003 µM) 95.4% | viability, T/C (second compound 0.1 µM, first compound 0.00949 µM) 101% | viability, T/C (second compound 0.1 µM, first compound 0.03 µM) 84.7% | viability, T/C (second compound 0.1 µM, first compound 0.0949 µM) 88% | viability, T/C (second compound 0.1 µM, first compound 0.3 µM) 78.4% | viability, T/C (second compound 0.316 µM, first compound 0.000949 µM) 99% | viability, T/C (second compound 0.316 µM, first compound 0.003 µM) 94% | viability, T/C (second compound 0.316 µM, first compound 0.00949 µM) 96.3% | viability, T/C (second compound 0.316 µM, first compound 0.03 µM) 83.8% | viability, T/C (second compound 0.316 µM, first compound 0.0949 µM) 83.9% | viability, T/C (second compound 0.316 µM, first compound 0.3 µM) 81.1% | viability, T/C (second compound 1 µM, first compound 0.000949 µM) 90.2% | viability, T/C (second compound 1 µM, first compound 0.003 µM) 87.3% | viability, T/C (second compound 1 µM, first compound 0.00949 µM) 96.3% | viability, T/C (second compound 1 µM, first compound 0.03 µM) 78.6% | viability, T/C (second compound 1 µM, first compound 0.0949 µM) 88.9% | viability, T/C (second compound 1 µM, first compound 0.3 µM) 79.2%

C=CC(=O)Nc1cc(Nc2nccc(-c3cn(C)c4ccccc34)n2)c(OC)cc1N(C)CCN(C)C + CCn1c(-c2cc(N3CCN(C)CC3)cnc2C(C)OC)c2c3cc(ccc31)-c1csc(n1)CC(NC(=O)C1CC1C)C(=O)N1CCCC(N1)C(=O)OCC(C)(C)C2
inactive: viability, T/C [1] 104% | viability, T/C [2] 91.1% | viability, T/C [3] 75.1% | viability, T/C [4] 82.8% | viability, T/C [5] 58.1% | viability, T/C [6] 37.1% | viability, T/C [7] 103% | viability, T/C [8] 88.7% | viability, T/C [9] 68% | viability, T/C [10] 74% | viability, T/C [11] 52.3% | viability, T/C [12] 35.9% | viability, T/C [13] 91.7% | viability, T/C [14] 78.3% | viability, T/C [15] 68.9% | viability, T/C [16] 54.4% | viability, T/C [17] 41.5% | viability, T/C [18] 24.6% | viability, T/C [19] 58.9% | viability, T/C [20] 60.1% | viability, T/C [21] 51.3% | viability, T/C [22] 42.8% | viability, T/C [23] 36.9% | viability, T/C [24] 21.2% | viability, T/C [25] 46.6% | viability, T/C [26] 45.7% | viability, T/C [27] 34.2% | viability, T/C [28] 36.9% | viability, T/C [29] 24.4% | viability, T/C [30] 17.3% | viability, T/C [31] 33.3% | viability, T/C [32] 34.9% | viability, T/C [33] 29.7% | viability, T/C [34] 30.1% | viability, T/C [35] 26.9% | viability, T/C [36] 16.1%
6.28: pIC50 (second compound 0.000949 µM)
6.83: pIC50 (second compound 0.00949 µM)
> 8.50: pIC50 (second compound 0.0949 µM) | pIC50 (second compound 0.3 µM)
7.35: pIC50 (second compound 0.03 µM)
6.44: pIC50 (second compound 0.003 µM)

O=C(c1ccc(F)c(F)c1Nc1ccc(I)cc1F)N1CC(O)([C@@H]2CCCCN2)C1 + CCn1c(-c2cc(N3CCN(C)CC3)cnc2C(C)OC)c2c3cc(ccc31)-c1csc(n1)CC(NC(=O)C1CC1C)C(=O)N1CCCC(N1)C(=O)OCC(C)(C)C2
> 8.50: pIC50 (second compound 0.0949 µM) | pIC50 (second compound 0.3 µM)
8.30: pIC50 (second compound 0.03 µM)
7.37: pIC50 (second compound 0.003 µM)
7.58: pIC50 (second compound 0.00949 µM)
inactive: viability, T/C [1] 79.7% | viability, T/C [2] 75.5% | viability, T/C [3] 65.4% | viability, T/C [4] 45.2% | viability, T/C [5] 18.3% | viability, T/C [7] 91.8% | viability, T/C [8] 74.2% | viability, T/C [9] 53.8% | viability, T/C [10] 40% | viability, T/C [11] 14.5% | viability, T/C [13] 73.1% | viability, T/C [14] 63.4% | viability, T/C [15] 45.9% | viability, T/C [16] 32.7% | viability, T/C [17] 11.4% | viability, T/C [19] 57.8% | viability, T/C [20] 37.1% | viability, T/C [21] 28.5% | viability, T/C [22] 18.5% | viability, T/C [23] 8.58% | viability, T/C [25] 28.6% | viability, T/C [26] 27.8% | viability, T/C [27] 15.5% | viability, T/C [31] 23.2% | viability, T/C [32] 17.1% | viability, T/C [33] 11.6%
7.13: pIC50 (second compound 0.000949 µM)
active: viability, T/C [6] 6.04% | viability, T/C [12] 7.31% | viability, T/C [18] 7.1% | viability, T/C [24] 5.7% | viability, T/C [28] 7.38% | viability, T/C [29] 6.14% | viability, T/C [30] 4.07% | viability, T/C [34] 6.62% | viability, T/C [35] 6.7% | viability, T/C [36] 5.28%
